Reference: patent publication US20230270713A1, “Administration of Resiniferatoxin For Treatment of Bladder Pain or Bladder Cancer” (Sorrento Therapeutics, Inc., priority 2020, published 2023)

What was measured:
[1] = Tolerability of intravesical RTX in healthy cats (physical exam, blood count, chemistry); format: in vivo, cat; conditions: healthy cats, 5, 25 or 50 mcg intravesical, during or post administration
Method: To examine the effect of intravesical instillation of RTX on the bladder, 6 healthy cats, between the 2-5 years of age, were treated with either 5 (low dose), 25 (mid dose) or 50 mcg (high dose) of RTX (volume was 25 ml; concentrations were 0.2, 1, and 2 mcg/ml). These doses are considered equivalent to administration of 20, 100, or 200 mcg in a human with a volume of 100 ml. A seventh cat received saline only and served as the control. The bladders of the anesthetized cats were emptied and then flushed with sterile saline via a foley urinary catheter. Once the saline was removed, the treatment with RTX (test cats) or saline alone (control cat) was administered over 60 seconds and left in the bladder for 20 minutes.
A physical exam, complete blood count and chemistry parameters were performed on day 0, 7, and 14. Complete blood count and chemistry parameters were analyzed at the Clinical Pathology Laboratory at the University of Georgia. Food consumption and signs of abnormal urination were monitored through the study period.

dogs with bladder cancer = test: Lower urinary tract symptom scale in dogs with bladder cancer (Example D); format: in vivo, dog; conditions: 1.0 or 2.0 ug/ml intravesical
Method: Dogs with bladder cancer were treated with RTX as follows. Under general anesthesia, RTX was infused directly into the bladder using a foley catheter. RTX remained in the bladder for 30 minutes before removal.
6 dogs were enrolled and treated at the following doses: • <10 kg: RTX 25 ug diluted in 24 ml NaCl (1.0 ug/ml solution) • >10 kg: RTX 50 ug diluted in 48 ml NaCl (1.0 ug/ml solution)
7 dogs were then enrolled and treated at the following doses: • <10 kg: RTX 25 ug diluted in 11.5 ml NaCl (2.0 ug/ml solution) • 10-25 kg: RTX 50 ug diluted in 23 ml NaCl (2.0 ug/ml solution) • >25 kg: RTX 100 ug diluted in 46 ml NaCl (2.0 ug/ml solution)
Three dogs were treated twice with at least 28 days between treatments. Two dogs were lost to follow-up after day 0.
The primary endpoint was assessment of improvement of lower urinary tract signs with a 4-point lower urinary tract symptom scale (character of urination/degree of straining; frequency of urination (daytime); frequency of urination (nighttime); and blood in urine). The secondary endpoints were anti-cancer effect, as measured by bladder ultrasound, and quality of life.

[2] = test system: cats with FIC (Feline Idiopathic Cystitis); test: VSOM and Cystitis Events Survey combined effect in FIC cats; format: in vivo, cat; conditions: for Cystitis ≥2 and VSOM ≥2 Point success, cats n/N / Cystitis ≥3 and VSOM ≥2 Point success, cats n/N / Cystitis ≥3 and VSOM ≥2 Point success, percent of cats / Cystitis ≥2 and VSOM ≥2 Point success, percent of cats: Day 28
From the text: Treatment success was defined as “a reduction of at least 2 in total VSOM score at Day 3 and 28 compared to VSOM score at day 0.” A decrease of less than 2, no change, or an increase in total score was defined as treatment failure. Cats presenting an increase in any individual VSOM score were considered a treatment failure regardless of total VSOM score.
The use of the Cystitis Events Survey was exploratory, and no strict definition of success was applied to the results. However, and based on published literature, the results were described as follows: (1) percentage of cats per cohort with an average improvement of 2 or more points and no increase in any individual score on Day 28; and (2) percentage of cats per cohort with an average improvement of 3 or more points and no increase in any individual score on Day 28.
When the results were combined for VSOM improvement of ≥2 and cystitis improvement of ≥3, the effectiveness decreased from 100% to 80% (see Cohort 1). […] Overall, the decrease was approximately 20% in Cohorts 1-2.

[3] = Adverse effects in dogs with bladder TCC (Example F); format: in vivo, dog; conditions: 16 dogs with bladder TCC
Method: RTX was administered as a one-time treatment into the bladder on Day 0 with the option of repeating RTX at a future study day. A Foley urinary catheter was placed using a sterile standard technique. An abdominal ultrasound was concurrently performed to ensure that the tip of the catheter was in the bladder lumen. Urine was removed using a catheter tipped syringe.
RTX was diluted in 0.9% NaCl and then infused into the bladder. The catheter was then flushed with 5-6 mL of 0.9% NaCl to ensure the entire IVP volume was administered. The Foley catheter was capped and remained in place for a period of 30 minutes post-infusion. The bladder was then emptied prior to removal of the Foley catheter. The timing of recovery was managed on an individual basis, but it was recommended to initiate recovery approximately 10 minutes after RTX infusion.

For `C=C(C)[C@]12C[C@@H](C)[C@@]34O[C@](Cc5ccccc5)(O[C@@H]1[C@@H]3C=C(COC(=O)Cc1ccc(O)c(OC)c1)C[C@]1(O)C(=O)C(C)=C[C@@H]41)O2` [RTX, resiniferatoxin], the “Tolerability / clinical adverse effects” value [1] was “well tolerated with no clinical adverse effects noted”, the “Improvement of at Least 1 Score, percent of dogs” value (dogs with bladder cancer; Day 7, n = 11) was 54.5% and the “Improvement of at Least 2 Scores, percent of dogs” value (dogs with bladder cancer; Day 7, n = 11) was 36.4%. For the same molecule, the “Improvement of at least 1 score (lower urinary tract symptom scale), number of dogs” value (dogs with bladder cancer; Day 7, n = 11) was 6, the “Improvement of at least 2 scores (lower urinary tract symptom scale), number of dogs” value (dogs with bladder cancer; Day 7, n = 11) was 4 and the “Improvement of at Least 1 Score, percent of dogs” value (dogs with bladder cancer; Day 14, n = 11) was 72.7%. The “Improvement of at Least 2 Scores, percent of dogs” value (dogs with bladder cancer; Day 14, n = 11) was 45.5%, the “Improvement of at least 1 score (lower urinary tract symptom scale), number of dogs” value (dogs with bladder cancer; Day 14, n = 11) was 8 and the “Improvement of at least 2 scores (lower urinary tract symptom scale), number of dogs” value (dogs with bladder cancer; Day 14, n = 11) was 5. The “Improvement of at Least 1 Score, percent of dogs” value (dogs with bladder cancer; Day 28, n = 8) was 75.0%, the “Improvement of at Least 2 Scores, percent of dogs” value (dogs with bladder cancer; Day 28, n = 8) was 50.0% and the “Improvement of at least 1 score (lower urinary tract symptom scale), number of dogs” value (dogs with bladder cancer; Day 28, n = 8) was 6. For the same molecule, the “Improvement of at least 2 scores (lower urinary tract symptom scale), number of dogs” value (dogs with bladder cancer; Day 28, n = 8) was 4, the “Improvement of at Least 1 Score, percent of dogs” value (dogs with bladder cancer; Day 56, n = 5) was 100% and the “Improvement of at Least 2 Scores, percent of dogs” value (dogs with bladder cancer; Day 56, n = 5) was 60.0%. For the same molecule, the “Improvement of at least 1 score (lower urinary tract symptom scale), number of dogs” value (dogs with bladder cancer; Day 56, n = 5) was 5, the “Improvement of at least 2 scores (lower urinary tract symptom scale), number of dogs” value (dogs with bladder cancer; Day 56, n = 5) was 3 and the “Improvement of at Least 1 Score, percent of dogs” value (dogs with bladder cancer; Day 84, n = 3) was 100%. The “Improvement of at Least 2 Scores, percent of dogs” value (dogs with bladder cancer; Day 84, n = 3) was 66.7%, the “Improvement of at least 1 score (lower urinary tract symptom scale), number of dogs” value (dogs with bladder cancer; Day 84, n = 3) was 3 and the “Improvement of at least 2 scores (lower urinary tract symptom scale), number of dogs” value (dogs with bladder cancer; Day 84, n = 3) was 2. The “Cystitis ≥2 and VSOM ≥2 Point success, cats n/N” value ([2]; 6.25 μg/25 mL (Cohort 2)) was 3/6, the “Cystitis ≥3 and VSOM ≥2 Point success, cats n/N” value ([2]; 6.25 μg/25 mL (Cohort 2)) was 2/6 and the “Cystitis ≥3 and VSOM ≥2 Point success, percent of cats” value ([2]; 6.25 μg/25 mL (Cohort 2)) was “(33.3%)”. For the same molecule, the “Cystitis ≥2 and VSOM ≥2 Point success, cats n/N” value ([2]; 12.5 μg/10 mL (Cohort 4)) was 4/6, the “Cystitis ≥2 and VSOM ≥2 Point success, percent of cats” value ([2]; 12.5 μg/10 mL (Cohort 4)) was “(66.7%)” and the “Cystitis ≥3 and VSOM ≥2 Point success, cats n/N” value ([2]; 12.5 μg/10 mL (Cohort 4)) was 4/6. For the same molecule, the “Cystitis ≥3 and VSOM ≥2 Point success, percent of cats” value ([2]; 12.5 μg/10 mL (Cohort 4)) was “(66.7%)”, the “Cystitis ≥2 and VSOM ≥2 Point success, cats n/N” value ([2]; 12.5 μg/25 mL (Cohort 3)) was 6/6 and the “Cystitis ≥2 and VSOM ≥2 Point success, percent of cats” value ([2]; 12.5 μg/25 mL (Cohort 3)) was “(100%)”. For the same molecule, the “Cystitis ≥3 and VSOM ≥2 Point success, cats n/N” value ([2]; 12.5 μg/25 mL (Cohort 3)) was 6/6, the “Cystitis ≥3 and VSOM ≥2 Point success, percent of cats” value ([2]; 12.5 μg/25 mL (Cohort 3)) was “(100%)” and the “Cystitis ≥2 and VSOM ≥2 Point success, cats n/N” value ([2]; 25 μg/25 mL (Cohort 1)) was 4/5. For the same molecule, the “Cystitis ≥2 and VSOM ≥2 Point success, percent of cats” value ([2]; 25 μg/25 mL (Cohort 1)) was “(80%)”, the “Cystitis ≥3 and VSOM ≥2 Point success, cats n/N” value ([2]; 25 μg/25 mL (Cohort 1)) was 4/5 and the “decrease in effectiveness when VSOM and cystitis results are combined” value ([2]; Cohorts 1-2, overall) was “approximately 20%”. For the same molecule, the Tolerability [3] was “very well tolerated”, the “dose dependence of the most commonly reported AE (emesis, diarrhea, anorexia)” value [3] was “did not appear to be dose dependent” and the “AE anorexia, number of dogs” value ([3]; RTX 25-100 μg intravesical) was 4 dogs. For the same molecule, the “AE anorexia, percent of dogs” value ([3]; RTX 25-100 μg intravesical) was 25.0%, the “AE diarrhea, number of dogs” value ([3]; RTX 25-100 μg intravesical) was 5 dogs and the “AE diarrhea, percent of dogs” value ([3]; RTX 25-100 μg intravesical) was 31.3%. The “AE emesis, number of dogs” value ([3]; RTX 25-100 μg intravesical) was 6 dogs, the “AE emesis, percent of dogs” value ([3]; RTX 25-100 μg intravesical) was 37.5% and the “AE lethargy, number of dogs” value ([3]; RTX 25-100 μg intravesical) was 4 dogs. The “AE lethargy, percent of dogs” value ([3]; RTX 25-100 μg intravesical) was 25.0%, the “dogs with an SAE” value ([3]; SAE considered most likely related to tumor progression) was 1 dog and the “severity of the most common AEs” value ([3]; except one anorexia event considered severe) was “mild to moderate (Grade 1 or 2)”.
